# What was measured:
# CYP3A4 = CYP3A4 (Homo sapiens, UniProt P08684); test: Example 2 Part D: effect of tucatinib on PK of substrate probe midazolam; conditions: steady-state tucatinib in combination with tolbutamide/midazolam vs tolbutamide/midazolam alone
# Description: (§1) A Phase 1, open-label, fixed-sequence, 5-part, drug-drug interaction study of tucatinib was conducted to evaluate the effects of CYP3A4 and CYP2C8 inhibition and induction on the pharmacokinetics of tucatinib and to evaluate the effects of tucatinib on the pharmacokinetics of substrates of CYP3A4, CYP2C8, CYP2C9, and P-glycoprotein in healthy male and female subjects.
# (§2) Part B evaluates the effect of rifampin, a strong inducer of CYP3A4 and CYP2C8, on the PK of tucatinib. […] Part E evaluates the effect of tucatinib on the PK of a substrate probe of the transporter P-gp (digoxin). […] For Parts A, B, and C, tucatinib is given as a single oral dose because evaluating plasma exposures after a single dose of tucatinib is expected to provide an appropriate assessment of the impact of the probe drugs on tucatinib PK. In Parts D and E, tucatinib is given as a multiple-dosing regimen in order to examine its effects on probe drugs at steady state, at which maximal inhibition of CYP2C8, CYP2C9, CYP3A4, and P-gp by tucatinib should be achieved.
# (§3) Secondary objectives of the study included: (1) assessing the safety and tolerability of tucatinib when administered alone and when co-administered with substrate probes of CYP2C8, CYP2C9, and CYP3A4; and (2) assessing the single-dose PK of tucatinib and assessing the multiple-dose, steady-state PK of tucatinib alone and in the presence of substrate probes of CYP2C8, CYP2C9, and CYP3A4 in healthy subjects.
# (§4) They were discharged on Day 14 after completion of the in-patient assessments.
# (§5) On Day 1, each subject received a single oral dose of 0.5 mg of repaglinide. […] From Day 4 to Day 13, each subject received oral doses of 300 mg of tucatinib, twice daily (BID). On Day 11, each subject received a single oral dose of repaglinide. […] Tucatinib was provided as 150-mg tablets (2 tablets for the 300-mg dose), repaglinide was provided as 0.5-mg tablets, olbutamide was provided as 500-mg tablets, and midazolam was provided as a syrup (2 mg/mL; 1 mL syrup for the 2-mg dose). Tucatinib, repaglinide, olbutamide and midazolam were administered before meals preceded by an at least 8-hour overnight fast.
# (§6) Other noncompartmental PK parameters may be reported. Additionally, blood samples for determination of plasma concentrations of tucatinib and ONT-993 were collected at the time points indicated in FIG. 8. […] A single genotyping blood sample was collected to assess possible effect of CYP polymorphisms or other genetic polymorphisms on the magnitude of drug interactions of tucatinib with probe drugs and substrates.
# CYP2C9 = CYP2C9 (Homo sapiens, UniProt P11712); test: Example 2 Part D: effect of tucatinib on PK of substrate probe tolbutamide; conditions: tolbutamide/midazolam in combination with steady-state tucatinib vs tolbutamide/midazolam alone
# Sequence of CYP2C9 (P11712 whole entry): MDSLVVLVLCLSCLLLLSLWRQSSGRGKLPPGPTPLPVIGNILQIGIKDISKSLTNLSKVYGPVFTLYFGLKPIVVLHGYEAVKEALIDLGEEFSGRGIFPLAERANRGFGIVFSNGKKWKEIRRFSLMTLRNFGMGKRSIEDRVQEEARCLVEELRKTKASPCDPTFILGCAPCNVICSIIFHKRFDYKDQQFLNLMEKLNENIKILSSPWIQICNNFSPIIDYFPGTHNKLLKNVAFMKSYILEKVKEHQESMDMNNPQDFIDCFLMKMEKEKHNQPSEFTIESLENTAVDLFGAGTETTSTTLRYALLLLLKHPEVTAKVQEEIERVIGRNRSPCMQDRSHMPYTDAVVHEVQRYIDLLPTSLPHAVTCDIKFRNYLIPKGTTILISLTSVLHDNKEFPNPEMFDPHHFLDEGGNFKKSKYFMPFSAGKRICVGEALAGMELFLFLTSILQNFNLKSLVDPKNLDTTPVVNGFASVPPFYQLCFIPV
# Description: as §1, §2, §3, §4
# as §5, with “Tucatinib, repaglinide, olbutamide and midazolam were administered before meals preceded by an at least 8-hour overnight fast.” left out
# P-gp = P-gp (Homo sapiens, UniProt P08183); test: Example 2 Part E: effect of tucatinib on PK of substrate probe digoxin; conditions: digoxin in combination with steady-state tucatinib vs digoxin alone
# Sequence of P-gp (P08183 whole entry): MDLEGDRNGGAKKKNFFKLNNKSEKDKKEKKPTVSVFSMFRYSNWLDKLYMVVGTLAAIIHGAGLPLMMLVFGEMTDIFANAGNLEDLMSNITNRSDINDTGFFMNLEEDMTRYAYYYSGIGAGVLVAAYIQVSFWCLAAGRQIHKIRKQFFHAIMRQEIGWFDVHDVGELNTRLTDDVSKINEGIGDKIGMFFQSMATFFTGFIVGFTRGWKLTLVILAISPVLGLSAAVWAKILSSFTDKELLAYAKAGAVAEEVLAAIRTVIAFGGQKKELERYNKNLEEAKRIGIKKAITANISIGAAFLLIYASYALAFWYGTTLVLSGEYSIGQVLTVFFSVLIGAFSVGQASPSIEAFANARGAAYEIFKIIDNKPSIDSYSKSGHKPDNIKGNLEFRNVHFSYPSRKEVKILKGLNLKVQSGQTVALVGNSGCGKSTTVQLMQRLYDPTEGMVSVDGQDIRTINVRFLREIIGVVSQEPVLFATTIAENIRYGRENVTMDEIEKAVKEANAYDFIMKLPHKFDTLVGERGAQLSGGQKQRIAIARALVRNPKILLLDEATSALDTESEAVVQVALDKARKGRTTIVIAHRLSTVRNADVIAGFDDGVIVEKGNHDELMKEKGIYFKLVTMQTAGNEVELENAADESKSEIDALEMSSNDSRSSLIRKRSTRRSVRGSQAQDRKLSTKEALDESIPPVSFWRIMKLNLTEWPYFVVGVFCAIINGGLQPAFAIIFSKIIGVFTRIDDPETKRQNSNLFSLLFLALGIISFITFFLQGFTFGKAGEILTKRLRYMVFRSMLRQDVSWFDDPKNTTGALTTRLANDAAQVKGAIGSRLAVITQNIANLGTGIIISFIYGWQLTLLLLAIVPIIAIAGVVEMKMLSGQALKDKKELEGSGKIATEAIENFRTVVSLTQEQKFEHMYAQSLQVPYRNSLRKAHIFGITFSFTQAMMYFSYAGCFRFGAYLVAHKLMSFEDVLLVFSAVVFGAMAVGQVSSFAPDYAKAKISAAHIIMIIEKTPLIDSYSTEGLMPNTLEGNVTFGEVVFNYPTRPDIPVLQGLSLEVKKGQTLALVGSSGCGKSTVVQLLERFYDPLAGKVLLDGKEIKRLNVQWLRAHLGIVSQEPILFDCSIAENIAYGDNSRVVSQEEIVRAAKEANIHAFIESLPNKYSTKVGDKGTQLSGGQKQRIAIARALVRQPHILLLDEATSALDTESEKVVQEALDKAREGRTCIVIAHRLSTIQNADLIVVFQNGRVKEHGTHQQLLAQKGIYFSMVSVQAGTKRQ
# Description: as §1, §2
# A single genotyping blood sample was collected to assess possible effect of CYP polymorphisms or other genetic polymorphisms on the magnitude of drug interactions of tucatinib with probe drugs and substrates.
# [1] = Example 1: renal function (iohexol aGFR, serum creatinine, urine albumin); format: in vivo, human
# MATE1/2K [2] = test: clinical; conditions: both, human, plasma
# MATE1/2K [3] = test: Phase 1 drug-drug interaction study: effect of tucatinib on metformin pharmacokinetics (Example 1)
# CYP2C8 = target: T1, CYP2C8 (Homo sapiens, UniProt P10632); test: Example 2 Part D: effect of tucatinib on PK of substrate probe repaglinide; format: in vivo; set-up: endogenous in cells; host or cells: healthy human subjects, in vivo; conditions: repaglinide in combination with steady-state tucatinib vs repaglinide alone
# T1 sequence (P10632 1-490): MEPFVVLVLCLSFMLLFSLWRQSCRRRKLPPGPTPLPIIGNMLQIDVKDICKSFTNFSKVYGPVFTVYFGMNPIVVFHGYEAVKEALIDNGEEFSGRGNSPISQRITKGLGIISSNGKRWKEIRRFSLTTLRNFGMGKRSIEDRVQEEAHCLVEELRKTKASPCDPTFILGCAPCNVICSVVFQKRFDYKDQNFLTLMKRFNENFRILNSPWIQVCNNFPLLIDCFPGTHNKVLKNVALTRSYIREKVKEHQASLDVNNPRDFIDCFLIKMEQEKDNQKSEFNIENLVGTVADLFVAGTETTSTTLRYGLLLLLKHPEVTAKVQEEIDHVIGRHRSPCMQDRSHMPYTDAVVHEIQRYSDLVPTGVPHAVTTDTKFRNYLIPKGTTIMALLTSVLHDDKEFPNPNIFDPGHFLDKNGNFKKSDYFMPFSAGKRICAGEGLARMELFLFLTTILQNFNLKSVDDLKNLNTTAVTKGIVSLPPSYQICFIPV
# Description: as §1, §2, §3, §4, §5, §6
# [4] = coadministration of tucatinib with metformin compared to metformin alone
# [5] = Metformin with tucatinib (Test), n = 17
# Sequence of CYP3A4 (P08684 whole entry): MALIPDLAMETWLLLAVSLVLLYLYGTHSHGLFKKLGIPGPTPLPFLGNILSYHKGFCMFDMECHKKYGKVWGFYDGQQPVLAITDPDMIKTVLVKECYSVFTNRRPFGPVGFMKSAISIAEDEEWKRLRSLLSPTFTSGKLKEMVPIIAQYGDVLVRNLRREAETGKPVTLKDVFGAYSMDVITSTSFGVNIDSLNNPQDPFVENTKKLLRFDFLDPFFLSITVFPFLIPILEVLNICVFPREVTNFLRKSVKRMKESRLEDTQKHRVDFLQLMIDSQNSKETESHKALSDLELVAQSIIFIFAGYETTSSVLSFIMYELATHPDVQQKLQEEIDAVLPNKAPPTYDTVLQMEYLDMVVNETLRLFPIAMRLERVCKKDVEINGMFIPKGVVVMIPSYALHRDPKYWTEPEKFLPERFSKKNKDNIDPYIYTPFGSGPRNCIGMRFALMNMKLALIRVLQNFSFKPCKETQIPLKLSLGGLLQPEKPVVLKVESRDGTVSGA
smiles,measurement,setting,value
OCc1ncc2n1-c1ccc(Cl)cc1C(c1ccccc1F)=NC2 [1-hydroxymidazolam],"Geometric LS mean ratio (90% CI), AUC0-∞",CYP3A4,"1.02 (0.903, 1.16)"
same,"Geometric LS mean ratio (90% CI), AUClast",CYP3A4,"0.945 (0.848, 1.05)"
same,"Geometric LS mean ratio (90% CI), Cmax",CYP3A4,"0.593 (0.507, 0.694)"
same,"Geometric mean MRAUC0-∞, decreased by",CYP3A4,approximately 82.8%
same,"Geometric mean MRCmax, decreased by",CYP3A4,~80.4%
CCCCNC(=O)NS(=O)(=O)c1ccc(CO)cc1 [4-hydroxytolbutamide],"Geometric LS mean ratio (90% CI), AUC0-∞",CYP2C9,"0.918 (0.880, 0.958)"
same,"Geometric LS mean ratio (90% CI), AUClast",CYP2C9,"0.900 (0.868, 0.934)"
same,"Geometric LS mean ratio (90% CI), Cmax",CYP2C9,"0.881 (0.831, 0.934)"
C[C@H]1O[C@@H](O[C@H]2[C@@H](O)C[C@H](O[C@H]3[C@@H](O)C[C@H](O[C@H]4CC[C@@]5(C)[C@H](CC[C@@H]6[C@@H]5C[C@@H](O)[C@]5(C)[C@@H](C7=CC(=O)OC7)CC[C@]65O)C4)O[C@@H]3C)O[C@@H]2C)C[C@H](O)[C@@H]1O [digoxin],"Geometric LS mean ratio (90% CI), AUC0-∞",P-gp,"1.46 (1.29, 1.66)"
same,"Geometric LS mean ratio (90% CI), AUClast",P-gp,"1.53 (1.35, 1.74)"
same,"Geometric LS mean ratio (90% CI), Cmax",P-gp,"2.35 (1.90, 2.90)"
"CC(=O)N(CC(O)CO)c1c(I)c(C(=O)NCC(O)CO)c(I)c(C(=O)NCC(O)CO)c1I (stereo not shown) [iohexol, reference compound]",Mean iohexol PK parameters,[1]; [4],similar
same,aGFR estimated using the Jødal and Brøchner Mortensen equation (iohexol),[1]; metformin alone,94.99 mL/min/1.73 m^2
same,aGFR estimated using the Jødal and Brøchner Mortensen equation (iohexol),[1]; metformin plus tucatinib,94.56 mL/min/1.73 m^2
CN(C)C(=N)N=C(N)N [metformin],AUC,MATE1/2K [2]; oral,11600 ng·h/mL
same,AUC,"MATE1/2K [2]; oral, 850 mg",8330 ng·h/mL
same,AUC(0-t),"MATE1/2K [2]; oral, 850 mg",8150 ng·h/mL
same,Cmax,"MATE1/2K [2]; oral, 850 mg",1310 ng/mL
same,AUC(0-inf),"MATE1/2K [2]; po, 850 mg",8610 ng·h/mL
same,AUC(0-t),"MATE1/2K [2]; po, 850 mg",8420 ng·h/mL
same,Cmax,"MATE1/2K [2]; po, 850 mg",1330 ng/mL
same,Vd/F,"MATE1/2K [2]; po, 850 mg",695 L
same,"Plasma metformin CL/F, arithmetic mean (CV %)","MATE1/2K [3]; Metformin + tucatinib 300 mg bid at steady state, Day 8, N = 17",77.4 L/h
same,"Plasma metformin CL/F, arithmetic mean (CV %)","MATE1/2K [3]; Metformin + tucatinib 300 mg bid at steady state, Day 8, N = 17, listed as Metformin",77.4 (34.9) L/h
same,"Plasma metformin CL/F, arithmetic mean (CV %)","MATE1/2K [3]; Metformin alone, 850 mg oral, Day 1, N = 17",105.4 L/h
same,"Plasma metformin CL/F, arithmetic mean (CV %)","MATE1/2K [3]; Metformin alone, 850 mg oral, Day 1, N = 17, listed as Metformin",105.4 (26.7) L/h
same,"AUC0-last, geometric least-squares (LS) mean",MATE1/2K [3]; [5],11054 ng·h/mL
same,"Cmax, geometric least-squares (LS) mean",MATE1/2K [3]; [5],1418 ng/mL
same,Increase of arithmetic mean metformin AUC0-inf,MATE1/2K [3]; [4],1.409 fold
same,Increase of arithmetic mean metformin AUC0-last,MATE1/2K [3]; [4],1.376 fold
same,Increase of arithmetic mean metformin Cmax,MATE1/2K [3]; [4],1.102 fold
Cc1ncc2n1-c1ccc(Cl)cc1C(c1ccccc1F)=NC2 [midazolam],"Geometric LS mean ratio (90% CI), AUC0-∞",CYP3A4,"5.74 (5.05, 6.53)"
same,"Geometric LS mean ratio (90% CI), AUClast",CYP3A4,"5.30 (4.65, 6.04)"
same,"Geometric LS mean ratio (90% CI), Cmax",CYP3A4,"3.01 (2.63, 3.45)"
CCOc1cc(CC(=O)N[C@@H](CC(C)C)c2ccccc2N2CCCCC2)ccc1C(=O)O [repaglinide],"Geometric LS mean ratio (90% CI), AUC0-∞",CYP2C8,"1.69 (1.51, 1.90)"
same,"Geometric LS mean ratio (90% CI), AUClast",CYP2C8,"1.72 (1.55, 1.91)"
same,"Geometric LS mean ratio (90% CI), Cmax",CYP2C8,"1.69 (1.37, 2.10)"
